Reference: US8809550B2, “Androgen receptor antagonists and uses thereof” (priority 2009, dated 2014)

Columns and labels:
[1] = test system: Prostate-specific Antigen (PSA) production in LNCaP cells; assay: PSA assay: inhibition of PSA production in LNCaP cells (ELISA); assay type: cell-based; conditions: Homo sapiens, 72 h, R1881 1 ng/ml, three days, seven point assay
Protocol: (§1) PSA Assay (Inhibition Test of the Compound of the Present Invention on Prostate-Specific Antigen (PSA) Production in Various Prostate Cancer Cells)
(§2) Androgen dependent LNCaP and 22RV1 cells were purchased from the American Type Culture Collection (ATCC, Manassas, Va.). These cells were grown in RPMI 1640 medium supplemented with 10% fetal bovine serum (FBS), 100 U/mL penicillin, 100 μg/mL streptomycin, and 0.25 μg/mL amphotericin B. The cells were maintained at 37° C. and 5% CO2. LNCaP cells between passage 20 and 35, and 22RV1 cells between passage 30 and 50 were used for experiments. LNCaP is a hormone sensitive cell line, while 22RV1 is a hormone refractory prostate cancer cell line, which derived from a primary prostate tumor. This cell line was isolated from a xenograft (CWR22R-2152) that was serially propagated in mice after castration-induced regression and relapse of the parental, androgen-dependent CWR xenograft. For the PSA assay, human prostate cancer cells LNCaP or 22RV1 were seeded in a 96-well plate at a concentration of 5000 cells/100 μl/well. On the following day, Methyltrienolone (R1881, AR agonist) (final concentration 1 ng/ml), test compounds or bicalutamide (Casodex®, AstraZeneca) (final concentration 0.005 to 20 μM) were added. Three days after the addition, the concentration of PSA in the supernatant of the culture solution was measured by ELISA. ELISAs for human PSA in culture medium were performed using the ultra-sensitive assay procedure and reagents in the Active™ PSA assay kit (Diagnostic Systems Laboratories Inc., Webster, Tex.). Culture medium and standards (200 μl/well) were incubated in antibody-coated plates for 2 h at room temperature on a Titer plate shaker at 500-600 rpm. Wells were then washed five times. The HRP conjugate was diluted 1:20 with assay buffer, and 100 μl was added to all wells. The plates were incubated for 30 min at room temperature on the shaker and washed as before, and 100 μl TMB (3,3′,5,5′-tetramethylbenzidine, 0.4 g/l) was added. The plates were incubated for 10 min on the shaker, and the reaction was terminated with 100 μl stop solution. The plates were read using a plate reader at 450 nm with a 650 nm reference filter. PSA levels were normalized for differences in growth of LNCaP or 22RV1 cells following various treatments as determined by the MTS assay. IC50 of PSA was calculated based on a seven point assay (concentrations of tested compound) and expressed as micromolar (uM). Results on 22RV1 cells are shown as percent inhibition at 2 micromolar (uM). ND means not determined

[2] = test system: Prostate-specific Antigen (PSA) production in 22RV1 cells; assay: PSA assay: inhibition of PSA production in 22RV1 cells (ELISA); assay type: cell-based; conditions: Homo sapiens, 72 h, R1881 1 ng/ml, three days
Protocol: as §1
as §2, with “Results on 22RV1 cells are shown as percent inhibition at 2 micromolar (uM).” left out

[3] = test system: LNCaP cells; assay: Cell viability assay, LNCaP cells; assay type: cell-based; conditions: Homo sapiens, LNCaP, 48 h, read-out: Inhibition of cell viability, LNCaP % inhibition at 2.5 uM
Protocol: (§3) LNCaP and 22RV1 cells were maintained in RPMI 1640 medium supplemented with 10% fetal bovine serum (FBS), 100 U/mL penicillin, 100 μg/mL streptomycin, and 0.25 μg/mL amphotericin B, splitting cells when they reached 80-90% confluence. In order to test compounds, 10,000 cells/well were plated in 96 cell culture plates using 100 ul/well plating medium, cultured overnight at 37° C. in a cell culture incubator. After carefully remove plating medium, 80 ul/well of pre-warmed assay medium was added, followed by adding 10 ul/well test compounds or bicalutamide (final concentration from 20 uM to 0.1 uM), incubated at 37° C. for 30 minutes, then adding 10 ul/well freshly prepared Methyltrienolone (R1881, AR agonist) (final concentration 1 ng/ml) to each well, incubate at 37° C. for 48-hour. At the end of incubation, 20 μl MTT (2.5 mg/ml in PBS) was added to each well, and the cells were further incubated for 2 h at 37 C to allow a complete reaction between the dye and the enzyme mitochondrial dehydrogenase in the viable cells. After removal of the residual dye and medium, 100 μl dimethylsulfoxide was added to each well, and the absorbance at 570 nm was measured with an microplate reader. The fold induction over background by 1 nM R1881 in the absence of test compounds is standardized as 100% and experimental result is expressed as percentage of inhibition by testing compounds at 2.5 micromolar (uM).

[4] = test system: 22RV1 cells; assay: Cell viability assay, 22RV1 cells; assay type: cell-based, human; conditions: Homo sapiens, 22Rv1, 48 h, read-out: Inhibition of cell viability, 22RV1 % inhibition at 2.5 uM
Protocol: as §3

[5] = test system: C57BL/6 mice; assay: C57BL/6 mouse hair growth model; assay type: in vivo
Description: C57BL/6 Mouse Hair Growth Model
Six-to 8-wk-old male C57BL/6 mice in the telogen stage of the hair cycle, weighing 15-20 g, were purchased and housed in community cages under standard conditions. The growth phase of the hair cycle (anagen) was induced in the back skin of mice with all follicles in the resting phase of the hair cycle (telogen; as judged from their homogeneously pink skin color) by being shaved on the lower back using an electric shaver under mild anesthesia. Only mice in the telogen phase (pink skin) were used in the studies. Twenty microliters of test article at two concentrations in propylene glycol/ethanol (30:70, v/v) or the vehicle control was topically applied to the shaved lower back of the mice to cover an area of approximately 1 cm^2 (20 uL/cm^2). Five mice were used in each group. The mice were treated with the compound by topical application twice daily (BID) for 4 weeks. Local irritation was recorded daily before each application, and hair growth scores were recorded twice per week. The scoring system for mouse hair growth was 0 to 4: 0=no hair growth, pink skin color; 1=skin color in shaved area changes from pink to gray without visible hair growth, indicating the onset of anagen; 2=skin color in shaved area is black with tiny hairs; 3=short black hair in shaved area; and 4=hair in shaved area is almost close to surrounding area. […]

For CNC(=O)c1ccc(N2C(=S)N(c3ccc(C#N)c(C(F)(F)F)c3F)C(=O)C2(C)C)cc1F [Example 12, 4-[3-(4-Cyano-2-fluoro-3-trifluoromethyl-phenyl)-5,5-dimethyl-4-oxo-2-thioxo-imidazolidin-1-yl]-2-fluoro-N-methyl-benzamide], the IC50 [1] was 280 nM, the inhibition at 2 µM [2] was 71% and the cytotoxicity at 2.5 µM [3] was 86%. The cytotoxicity at 2.5 µM [4] was 61%, the hair growth stimulation ([5]; topical BID for 4 weeks, 0.2% and 1% in 30% propylene glycol and 70% ethanol, FIG. 1) was “stimulated hair growth in dose dependent patterns” and the “in vivo activity for promoting hair growth compared to RU-58841” value ([5]; topical, compared to reference androgen receptor antagonist RU-58841) was “better in vivo activity for promoting hair growth”.
